PMC7138307 (PLoS ONE, 2020)

What was measured:
[1] = biological target: T1, TTBK1 (Homo sapiens, UniProt Q5TCY1); experiment: TTBK biochemical (recombinant kinase) assay
T1 construct: TTBK1 1-479aa; SignalChem Catalog # T17-11G-05; purchased SignalChem T17-11G-05
Method: Final Kinase Activity conditions; 400 pM TTBK1 at ambient temperature in 25 mM Hepes, pH 7.5, 50 mM NaCl, 10 mM MgCl2, 0.02% Brij-35, 1 mM DTT, 10 uM ATP and 100 nM Ulight TOPO IIa peptide substrate ([sequence]). After a 2 hour incubation at 23 °C, the kinase reaction was quenched with 30 ul of 60 mM EDTA, and 2 nM Eu-anti- FDEKpTDDEDF antibody in 1X Lance Delfia Detection Buffer and incubated for one hour prior to detection with the EnVision Multilabel Reader (PerkinElmer). […] For compound inhibition, 15 ul of 800 pM TTBK1 was preincubated for 30 minutes with 300 nl of 100x compound stock in DMSO before initiation of the activity by addition of 15 ul of 2x Substrate Stock (200 nM peptide and 20 uM ATP).

[2] = tested on: tau phosphorylation following TTBK1 overexpression in HEK293 cells; experiment: Western blot of tau phosphorylation in HEK293 cells overexpressing TTBK1 and human Tau (2N4R) plus or minus staurosporine; type: cell-based; conditions: 10μM, one hour
Excerpt: However, it is unclear whether TTBK1 directly phosphorylates tau at these sites or whether it enhances the phosphorylation of tau through the activation of other kinases. […]; Fig 1A). […]. TTBK1 overexpression led to the increase in tau phosphorylation at several sites; some previously identified including S422, AT8 ([…]) and S198 as well as additional novel sites like AT180 (Thr231), PHF-13 (S396), S214, and S356 (Fig 1B and 1C). […].
Fig 1 TTBK1 overexpression leads to direct and indirect phosphorylation of Tau at disease-relevant sites. (A) Phylogenetic tree of the human kinome illustrating the biochemical IC50 for Staurosporine against various kinases (data compiled from Davis et al., 2011 in addition to internal data on the affinity of Staurosporine for TTBK1/TTBK2). […] TTBK1 overexpression caused a dramatic increase in the overall level of tau phosphorylation. […]. HEK293 cells obtained from American Type Culture Collection (ATCC, Manassas, VA) were cultured in Dulbecco's modified Eagle's medium (DMEM) supplemented with 10% fetal bovine serum (FBS), 10 units/ml penicillin, and 10μg/ml streptomycin (all reagents were purchased from Gibco, Waltham, MA). Cell cultures were maintained in a humidified 5% (v/v) CO2/air environment at 37°C. When the cells reached 50–80% confluence, they were transfected with a complex consisting of a 3:1 ratio of FuGENE 6 Transfection Reagent (Promega, Madison, WI) and plasmid DNA. Plasmid DNA was balanced out across reactions using an empty plasmid so that the same amount of DNA was added per well. This transfection complex was prepared following the manufacturers protocol and added directly to the cell media for 24 or 48 hours prior to lysis.
Samples were lysed in Pierce RIPA lysis and extraction buffer (Thermo Fisher Scientific, Waltham, MA) supplemented with 1% Halt protease and phosphatase inhibitor cocktail (Thermo Fisher Scientific, Waltham, MA) and centrifuged at 14000 x g for 20 min at 4°C to clear the lysate. Protein concentrations were determined using the Direct Detect Infrared Spectrometer (EMD Millipore Corp., Burlington, MA) and 10μg of each sample was denatured in 6X SDS sample buffer (Boston Bioproducts, Ashland, MA) for 7 minutes at 90°C. Proteins were loaded into a Criterion 7.5% tris-glycine gel (Bio-Rad, Hercules, CA) and separated by SDS-PAGE at 120V for 120 minutes. The gel was transferred to an IBlot2 nitrocellulose membrane (Invitrogen, Carlsbad, CA), blocked with TBST blocking buffer (Li-cor Biosciences, Lincoln, NE) for 1 hour, and washed three times with TBST. The membrane was probed with primary antibodies (1:1000 dilution) in antibody dilution buffer (1:1 TBST blocking buffer and 1X TBST) overnight at 4°C. The following antibodies were used for immunoblotting: TTBK1 (Cat# PA5-20686, Invitrogen, Carlsbad, CA), Tau-5 (Cat# ab80579, Abcam, Cambridge, UK), phospho-Tau S422 (Cat# ab79415, Abcam, Cambridge, UK), S198 (Cat# ab79540, Abcam, Cambridge, UK), AT8 S202/T205 (Cat# MN1020, Invitrogen, Carlsbad, CA), S214 (Cat# ab170892, Abcam, Cambridge, UK), AT180 T231 (Cat# MN1040, Invitrogen, Carlsbad, CA), S262 (Cat# ab131354, Abcam, Cambridge, UK), S356 (Cat# ab75603, Abcam, Cambridge, UK), S396 (Cat# ab109390, Abcam, Cambridge, UK), GAPDH (Cat# 5174S, Cell Signaling Technology, Danvers, MA), and β-actin (Cat# 926–42212, Li-cor Biosciences, Lincoln, NE). The blot was then washed in triplicate with TBST and incubated for 1 hour with secondary antibody (1:10,000 dilution of IRDye 800 anti-mouse IgG and IRDye 680 anti-rabbit IgG, Li-cor Biosciences, Lincoln, NE) in antibody dilution buffer. After a final triplicate wash with TBST, the blot was visualized using the Odyssey CLx imaging system (Li-cor Biosciences, Lincoln, NE).

T1 sequence (Q5TCY1 1-479): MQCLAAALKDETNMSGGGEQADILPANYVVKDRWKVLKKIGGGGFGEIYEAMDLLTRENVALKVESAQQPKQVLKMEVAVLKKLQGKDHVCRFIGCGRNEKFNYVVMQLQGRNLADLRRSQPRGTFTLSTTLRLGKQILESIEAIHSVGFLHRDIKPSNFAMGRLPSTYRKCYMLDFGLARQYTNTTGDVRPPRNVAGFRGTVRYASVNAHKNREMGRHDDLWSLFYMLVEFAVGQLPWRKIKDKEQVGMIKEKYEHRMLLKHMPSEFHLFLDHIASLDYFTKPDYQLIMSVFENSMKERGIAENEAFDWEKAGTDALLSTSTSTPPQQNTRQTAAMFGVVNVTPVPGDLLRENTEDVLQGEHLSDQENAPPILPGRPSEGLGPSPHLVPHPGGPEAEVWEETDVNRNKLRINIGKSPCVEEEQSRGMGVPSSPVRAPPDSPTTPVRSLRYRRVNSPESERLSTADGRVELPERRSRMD

With `CN[C@@H]1C[C@H]2O[C@@](C)([C@@H]1OC)n1c3ccccc3c3c4c(c5c6ccccc6n2c5c31)C(=O)NC4` [Staurosporine, staurosporine] the IC50 [1] was over 30 µM, the “increase in tau phosphorylation at AT8 following TTBK1 overexpression” value [2] was “not inhibited” and the “increase in tau phosphorylation at S198 following TTBK1 overexpression” value [2] was “not inhibited”. For the same compound, the “increase in tau phosphorylation at S422 following TTBK1 overexpression” value [2] was “not inhibited”, the “phosphorylation of tau at AT180” value [2] was “reduced” and the “phosphorylation of tau at S214” value [2] was “reduced”. The “phosphorylation of tau at S356” value [2] was “reduced” and the “phosphorylation of tau at S396” value [2] was “reduced”.
